Each structure is given as a SMILES string.

Consider eight compounds from patent US20260184689A1, “PIPERIDINE-SUBSTITUTED BENZOIC ACID COMPOUND, AND PHARMACEUTICAL COMPOSITION AND USE THEREOF” (SHANGHAI YISHENG BIOPHARMACEUTICAL COMPANY LIMITED, priority 2022, published 2026).

For one assay, the system named is PNH-like erythrocytes. Description: Alternative pathway inhibition assay of PNH-like erythrocyte. The assay is classed as cell-based. The settings on record: 1 h, AET/anti-CD55 sensitized human erythrocytes, acidified normal human serum pH 6.4, 37° C. 60 min. The text has this: Principle: PNH, as an indication for complement inhibitors, was typically tested using the Ham test, which states that acidified serum was capable of activating the alternative pathway, leading to hemolysis of PNH erythrocytes, while normal erythrocytes remained unaffected. It was reported in the literature that AET could disrupt the complement regulatory proteins on the surface of normal human erythrocytes, resulting in PNH-like erythrocytes.
Reagents and instrument: PBS buffer, normal human serum (NHS), Alsever's solution, microplate reader, MgCl2, EGTA, EDTA, HCl, normal human erythrocytes, AET; anti-CD-55 antibody (BRIC216; Sigma)
PBS buffer: Potassium dihydrogen phosphate (KH2PO4): 0.24 g/L, disodium hydrogen phosphate (Na2HPO4): 1.44 g/L, sodium chloride (NaCl): 8 g/L, potassium chloride (KCl): 0.2 g/L, pH 7.4
PBSE buffer: PBS, 10 mM EDTA; pH 7.4
PBSMg buffer: PBS, 1 mM Mg++; pH 6.4
10× Mg-EGTA stock solution: 25 mM MgCl2, 80 mM EGTA; pH 6.4
10× EDTA stock solution: 100 mM EDTA; pH 6.4
Method: The inhibition of alternative pathway-mediated erythrocyte lysis was evaluated using an in vitro model of PNH. Normal human erythrocytes were sensitized with 2-aminoethylisothiouronium bromide (AET) to inactivate complement regulatory proteins on the cell surface and induce a PNH-like phenotype.
2 mL of normal human erythrocytes were mixed with 2 mL of Alsever's solution, washed three times with PBS, and centrifuged at 2500×g, with the upper 10% of the erythrocytes being removed each time. The washed 1 mL erythrocytes were sensitized by incubation with 4 mL of 8% w/v AET (pH 8.0) at 37° C. for 10 min, followed by three additional washes with PBS. Subsequently, the concentration of erythrocytes in PBS (erythrocyte stock solution) was adjusted with PBS such that an absorbance of 1.5-2.0 at 412 nm (indicating hemoglobin release) was achieved upon dilution of 10 μL erythrocyte stock solution with 190 μL water.
1.5 mL of the erythrocyte stock solution was mixed with anti-CD55 antibody (BRIC216; Sigma/final concentration of 6.7 μg/mL) and incubated on ice for 30 min. After being washed once with PBS, the treated erythrocytes were resuspended in PBS-Mg to the initial volume of 1.5 mL. The following AP-mediated lysis assay was performed on this erythrocyte preparation with induced PNH phenotype.
The normal human serum was acidified with 0.2 M HCl to pH 6.4, and supplemented with MgCl2 and EGTA to final concentrations of 2.5 and 8 mM, respectively. 80 μL of this serum mixture was mixed with 10 μL of PBS-Mg (negative blank) or 10 μL of samples at various concentrations. Normal human serum was acidified with 0.2 M HCl to pH 6.4, supplemented with EDTA to a final concentration of 10 mM, and 80 μL of this serum mixture was mixed with 10 μL of PBS-Mg (negative blank) as a blank positive control. The sample was incubated with serum on ice for 5 min, and then 10 μL of sensitized erythrocytes were added. The final serum concentration in the reaction mixture was approximately 64% v/v, incubated at 37° C. for 60 min, and the reaction was quenched by adding 50 μL of ice-cold PBS containing 10 mM EDTA. The remaining unlysed cells were centrifuged at 2500×g for 10 min, and 100 μL of the supernatant was transferred to a 96-well plate to measure its absorbance at 412 nm. The amount of hemoglobin released during erythrocyte lysis was thereby quantified. […] represented the relative lysis of PNH-like erythrocytes (expressed in %; set to 0% for the PC sample and 100% for the NC sample). The absorbance was measured using a microplate reader (Molecular Devices SpectraMax 3X). The IC50 value was calculated by applying nonlinear regression with GraphPad Prism 9.0 software from the percentage of hemolysis as a function of the test compound concentration.

In assay [1] the target is T1, Complement factor B (Homo sapiens, UniProt P00751). Description: Optical surface plasmon resonance (SPR) binding affinity assay. (SPR reads the build-up and loss of mass on a sensor chip optically.)
Target sequence in this assay (P00751 26-764): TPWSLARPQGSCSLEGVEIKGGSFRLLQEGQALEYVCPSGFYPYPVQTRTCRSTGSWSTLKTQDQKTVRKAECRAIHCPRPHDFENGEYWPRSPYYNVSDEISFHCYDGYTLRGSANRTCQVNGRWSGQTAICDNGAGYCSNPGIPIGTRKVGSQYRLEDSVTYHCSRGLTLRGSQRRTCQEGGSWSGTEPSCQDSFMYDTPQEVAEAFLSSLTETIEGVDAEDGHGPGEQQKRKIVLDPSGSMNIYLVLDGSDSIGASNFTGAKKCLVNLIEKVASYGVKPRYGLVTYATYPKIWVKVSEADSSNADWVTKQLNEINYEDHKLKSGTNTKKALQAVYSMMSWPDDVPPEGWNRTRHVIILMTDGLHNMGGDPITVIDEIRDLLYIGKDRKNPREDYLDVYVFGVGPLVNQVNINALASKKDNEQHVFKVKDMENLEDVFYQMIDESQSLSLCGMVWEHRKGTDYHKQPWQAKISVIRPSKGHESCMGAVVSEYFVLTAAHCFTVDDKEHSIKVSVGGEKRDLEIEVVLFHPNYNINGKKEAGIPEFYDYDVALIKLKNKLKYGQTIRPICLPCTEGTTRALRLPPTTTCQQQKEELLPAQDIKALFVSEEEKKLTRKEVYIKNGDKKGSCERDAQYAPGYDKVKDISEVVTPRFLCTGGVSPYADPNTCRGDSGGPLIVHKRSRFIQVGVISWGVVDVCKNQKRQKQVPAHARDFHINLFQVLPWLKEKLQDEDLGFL
Method: The SPR experiment was conducted at 25° C. using PBS buffer supplemented with 0.05% (v/v) P20 and 5% DMSO as the running buffer. The Biacore 8K instrument from GE Healthcare was employed for analysis. The CM3 chip (GE Healthcare) was activated with 400 mM EDC and 100 mM NHS at a flow rate of 30 μL/min for 420 s.
The target of assay [2] is T1, Complement factor B. Description: Human complement factor B ELISA assay (CVF-Bb, complement C3 protein). The assay is classed as biochemical. Set-up: followed by the addition of 0.2 μL of CVF-Bb (0.1 μmol/mL). The settings on record: CVF-Bb incubated with compound 1 hour, then complement C3 protein 37° C. 2 hours, OD 450 nm. As for the experimental part: The mixture was incubated at room temperature for 1 hour;
Then, 9 μL of the successfully incubated samples were taken and added to the wells of the 96T plate, followed by the addition of 1 μL complement C3 protein, and the reaction was carried out at a constant temperature of 37° C. for 2 hours;
The 9 μL of the aforementioned sample-free liquid was mixed with 1 μL of complement C3 protein as the negative control; • 10 μL of the successfully incubated sample was taken, and the inhibitory concentration was determined by ELISA. The OD value at 450 nm was measured, and a curve was plotted. The obtained data were analyzed using GraphPad Prism 7.0 software, and a Log concentration-inhibition rate curve was generated using a nonlinear regression model to calculate the IC50 value.
Target sequence in this assay (P00751 260-764 limits assumed): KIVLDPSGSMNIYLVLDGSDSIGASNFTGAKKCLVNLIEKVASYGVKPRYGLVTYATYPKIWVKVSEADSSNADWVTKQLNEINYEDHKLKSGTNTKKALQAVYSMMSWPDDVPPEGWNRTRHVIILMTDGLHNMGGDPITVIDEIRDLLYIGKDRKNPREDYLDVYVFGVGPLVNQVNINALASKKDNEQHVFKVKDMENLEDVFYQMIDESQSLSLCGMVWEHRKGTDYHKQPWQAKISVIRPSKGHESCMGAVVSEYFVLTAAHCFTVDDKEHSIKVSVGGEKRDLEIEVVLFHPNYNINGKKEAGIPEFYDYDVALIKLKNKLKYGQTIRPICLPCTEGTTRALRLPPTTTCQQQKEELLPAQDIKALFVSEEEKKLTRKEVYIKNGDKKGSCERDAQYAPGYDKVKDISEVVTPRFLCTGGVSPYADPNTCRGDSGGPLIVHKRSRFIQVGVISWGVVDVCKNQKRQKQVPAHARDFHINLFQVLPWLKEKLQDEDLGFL
Target sequence in this assay (Q91132 23-649 partner limits assumed): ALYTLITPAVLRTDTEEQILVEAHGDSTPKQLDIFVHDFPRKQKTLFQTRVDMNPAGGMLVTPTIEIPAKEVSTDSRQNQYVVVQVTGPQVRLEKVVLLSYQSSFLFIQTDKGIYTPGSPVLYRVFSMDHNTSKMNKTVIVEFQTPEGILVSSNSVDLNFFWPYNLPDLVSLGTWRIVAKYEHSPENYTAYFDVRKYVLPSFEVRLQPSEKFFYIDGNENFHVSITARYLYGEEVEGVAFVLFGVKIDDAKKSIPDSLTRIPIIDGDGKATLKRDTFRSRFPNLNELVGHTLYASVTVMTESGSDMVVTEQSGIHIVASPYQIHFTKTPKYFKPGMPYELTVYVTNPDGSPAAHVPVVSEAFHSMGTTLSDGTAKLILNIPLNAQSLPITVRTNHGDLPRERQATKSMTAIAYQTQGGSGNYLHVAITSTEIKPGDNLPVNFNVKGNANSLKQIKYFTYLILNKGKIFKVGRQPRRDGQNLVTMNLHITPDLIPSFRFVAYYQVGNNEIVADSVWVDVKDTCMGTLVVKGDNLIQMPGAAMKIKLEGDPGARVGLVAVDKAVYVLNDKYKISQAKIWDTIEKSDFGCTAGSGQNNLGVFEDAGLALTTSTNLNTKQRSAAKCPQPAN
Target sequence in this assay (Q91132 733-984 partner limits assumed): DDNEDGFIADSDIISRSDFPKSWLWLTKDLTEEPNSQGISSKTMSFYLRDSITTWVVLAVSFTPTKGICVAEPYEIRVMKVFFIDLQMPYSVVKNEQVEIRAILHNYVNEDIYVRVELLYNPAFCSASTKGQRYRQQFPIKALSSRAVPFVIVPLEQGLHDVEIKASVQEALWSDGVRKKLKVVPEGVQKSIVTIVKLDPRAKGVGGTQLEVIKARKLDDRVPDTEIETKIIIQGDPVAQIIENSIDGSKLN
Target sequence in this assay (Q91132 1264-1642 partner limits assumed): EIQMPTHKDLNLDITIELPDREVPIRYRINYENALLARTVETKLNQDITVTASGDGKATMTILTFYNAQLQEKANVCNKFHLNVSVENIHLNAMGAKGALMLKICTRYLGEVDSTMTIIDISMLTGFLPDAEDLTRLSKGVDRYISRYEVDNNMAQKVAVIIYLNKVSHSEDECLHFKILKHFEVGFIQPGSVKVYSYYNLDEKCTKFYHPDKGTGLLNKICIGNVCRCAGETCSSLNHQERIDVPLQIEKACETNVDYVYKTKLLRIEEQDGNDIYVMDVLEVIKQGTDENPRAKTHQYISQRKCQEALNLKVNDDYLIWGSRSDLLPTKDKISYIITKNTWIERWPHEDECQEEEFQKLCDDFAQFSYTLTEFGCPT
(ELISA stands for enzyme-linked immunosorbent assay.)

Consider `COc1cc(C)c2[nH]ccc2c1C(=O)N1CCC(O)(C2CCC2)C[C@H]1c1ccc(C(=O)O)cc1` (mixture of isomers) [Final product of Example 154, 4-((2S)-4-Cyclobutyl-4-hydroxy-1-(5-methoxy-7-methyl-1H-indole-4-carbonyl)piperidin-2-yl)benzoic acid], for which the IC50 lay within 4000 to 4500 nM in the assay on PNH-like erythrocytes and 400 to 450 nM on Complement factor B [2]. The Kd on Complement factor B [1] lay in the range of 10 to 30 nM.
In the same order, the values of `COc1cc(C)c2[nH]ccc2c1C(=O)N1CC[C@H](OC)C[C@H]1c1ccc(C(=O)O)cc1` [Final product of Example 156, 4-((2S,4S)-4-Methoxy-1-(5-methoxy-7-methyl-1H-indole-4-carbonyl)piperidin-2-yl)benzoic acid] are 1000 to 1500 nM, 150 to 300 nM and 10 to 30 nM.
Turning to `CCO[C@H]1CCN(C(=O)c2c(OC)cc(C)c3[nH]ccc23)[C@H](c2ccc(C(=O)O)cc2)C1` [Compound 1 of Example 55, 4-((2S,4S)-4-Ethoxy-1-(5-methoxy-7-methyl-1H-indole-4-carbonyl)piperidin-2-yl)benzoic acid], the IC50 in the assay on PNH-like erythrocytes was 1000 to 1500 nM; at Complement factor B [2], 150 to 300 nM. Besides, the Kd on Complement factor B [1] fell in the range of 10 to 30 nM.
`CCO[C@H]1CCN(Cc2c(OC)cc(C)c3[nH]ccc23)[C@H](c2ccc(C(=O)O)cc2)C1` [LNP023, reference compound]: the IC50 in the assay with PNH-like erythrocytes was 224 nM.
Regarding `COc1cc(C)c2[nH]ccc2c1C(=O)N1CC[C@H](OC2CCC2)C[C@H]1c1ccc(C(=O)O)cc1` [Final product of Example 157, 4-((2S,4S)-4-Cyclobutoxy-1-(5-methoxy-7-methyl-1H-indole-4-carbonyl)piperidin-2-yl)benzoic acid], the IC50 was 4000 to 4500 nM in the assay with PNH-like erythrocytes and 400 to 450 nM at Complement factor B [2]. The same compound returned a Kd at Complement factor B [1] of 10 to 30 nM.
With `CCO[C@H]1CCN(S(=O)(=O)c2c(OC)cc(C)c3[nH]ccc23)[C@H](c2ccc(C(=O)O)cc2)C1` [Compound 51 of Example 144, 4-((2S,4S)-4-Ethoxy-1-((5-methoxy-7-methyl-1H-indol-4-yl)sulfonyl)piperidin-2-yl)benzoic acid], the results for the IC50 in the assay on PNH-like erythrocytes and at Complement factor B [2] were 2000 to 2500 nM and 300 to 500 nM, respectively. The compound also came in with a Kd on Complement factor B [1] of 10 to 30 nM.
For `COc1cc(C)c2[nH]ccc2c1C(=O)N1CCC(O)(C2CC2)C[C@H]1c1ccc(C(=O)O)cc1` (stereo partly drawn) [Final product of Example 155, 4-((2S)-4-Cyclopropyl-4-hydroxy-1-(5-methoxy-7-methyl-1H-indole-4-carbonyl)piperidin-2-yl)benzoic Acid], in that order: 1000 to 1500 nM, 150 to 300 nM and 10 to 30 nM.
Take `COc1cc(C)c2[nH]ccc2c1C(=O)N1CC[C@H](OCC2CC2)C[C@H]1c1ccc(C(=O)O)cc1` [Compound 9 of Example 71, 4-((2S,4S)-4-(Cyclopropylmethoxy)-1-(5-methoxy-7-methyl-1H-indole-4-carbonyl)piperidin-2-yl)benzoic acid]: in the assay on PNH-like erythrocytes, the IC50 was 6000 to 6500 nM. Further, the Kd on Complement factor B [1] lay within 10 to 30 nM.

One may read the IC50 as the midpoint of a concentration-inhibition curve. What is called Kd is a measure of binding affinity in units of concentration. Read a low Kd as a tighter complex.
